{"source": "patent US9707174B2", "about": "“Aqueous ophthalmic solution of olopatadine” (Gavis Pharmaceuticals, priority 2015, dated 2017)", "origin": "cited, not measured here", "conditions": "pH about 7.0, room temperature, olopatadine by itself"}
{"smiles": "CN(C)CC/C=C1/c2ccccc2COc2ccc(CC(=O)O)cc21", "note": "[olopatadine]", "values": [{"measurement": "soluble in water up to a concentration", "value": "about 0.18 w/v %"}]}
